Eleven compounds from ChEMBL document CHEMBL6096687, “In Vivo Stability Improvement of Astatobenzene Derivatives by Introducing Neighboring Substituents” (J Med Chem, 2025) can be followed below.

The structures appear in SMILES notation.

Series [1] can be described thus: Stability in mouse plasma assessed as parent compound remaining measured after 1 hrs by TLC analysis. Type of series: ADME, cell-free. The note with it: read-out: Stability.
A short description of series [2]: In vivo stability in male ddY mouse thyroid gland assessed as decrease in radioactivity at 37 kBq, iv measured after 10 to 240 mins by autowell-gamma counter analysis. Type of series: ADME, organism-based. The conditions noted are these: time 10-240 min.
The nature of series [3]: In vivo stability in male ddY mouse stomach assessed as decrease in radioactivity at 37 kBq, iv measured after 10 to 240 mins by autowell-gamma counter analysis. Type of series: ADME, organism-based. The conditions noted are these: time 10-240 min.
Series [4] is described as follows: Drug accumulation in male ddY mouse kidney at 37 kBq, iv measured after 10 to 240 mins by autowell-gamma counter analysis. Type of series: ADME, organism-based. The conditions noted are these: in vivo, time 10-240 min.
Series [5] is described as follows: Drug accumulation in male ddY mouse liver at 37 kBq, iv measured after 10 to 240 mins by autowell-gamma counter analysis. Type of series: ADME, organism-based. The note with it: in vivo, time 10-240 min.
Series [6] in a line: Drug accumulation in male ddY mouse intestine at 37 kBq, iv measured after 10 to 240 mins by autowell-gamma counter analysis. It counts as ADME, organism-based. The conditions noted are these: in vivo, time 10-240 min.
The nature of series [7]: In vivo metabolic stability in male ddY mouse urine assessed as intact compound at 37 kBq, iv measured after 1 hrs by RP-HPLC analysis. The note with it: read-out: Stability. It counts as ADME, organism-based.
A further series concerns the target Albumin (Homo sapiens, UniProt P02768). Nature of the series: Binding affinity to human serum albumin assessed as binding constant by ITC analysis. It counts as ADME. The note with it: isolated protein.

Sequence of Albumin (P02768 whole entry): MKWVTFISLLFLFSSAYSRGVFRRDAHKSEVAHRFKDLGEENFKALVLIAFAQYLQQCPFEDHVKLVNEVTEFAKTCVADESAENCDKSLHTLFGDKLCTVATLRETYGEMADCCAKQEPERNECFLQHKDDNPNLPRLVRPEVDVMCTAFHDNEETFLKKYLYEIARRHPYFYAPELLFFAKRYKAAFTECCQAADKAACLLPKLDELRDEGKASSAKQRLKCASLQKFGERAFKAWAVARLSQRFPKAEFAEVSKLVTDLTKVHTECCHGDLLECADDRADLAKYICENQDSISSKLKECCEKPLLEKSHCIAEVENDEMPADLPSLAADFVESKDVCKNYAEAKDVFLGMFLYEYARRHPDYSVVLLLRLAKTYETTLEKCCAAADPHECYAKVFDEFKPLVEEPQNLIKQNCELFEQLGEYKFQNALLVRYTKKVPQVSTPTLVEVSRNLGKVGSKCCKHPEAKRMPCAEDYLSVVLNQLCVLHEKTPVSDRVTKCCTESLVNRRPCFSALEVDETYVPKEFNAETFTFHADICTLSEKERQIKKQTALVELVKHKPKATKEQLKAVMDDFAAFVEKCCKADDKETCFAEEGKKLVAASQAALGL

As for `COCOCc1cc(C(=O)NCC(=O)O)cc(COCOC)c1[125I]`, the remaining at 1 h in series [1] turned out to be 92.9%. Further, the Stability entry in series [2] and in series [3] was “Stable” each time.

Consider `CN(C)C(=O)c1cc(C(=O)NCC(=O)O)ccc1[211At]`, for which the remaining at 1 h in series [1] was 95.8%. The Stability entry in series [2] and in series [3] was “Unstable” in each case.

On to `COCOCc1cc(C(=O)NCC(=O)O)cc(COCOC)c1[211At]`, for which, in series [1], the remaining at 1 h is 81.5%. In addition, the Stability entry in series [2] and in series [3] was “Unstable” throughout.

For `O=C(O)CNC(=O)c1cc(CO)c([211At])c(CO)c1`, in series [1], the remaining at 1 h came to 88.7%. Further, the Stability result in series [2] and in series [3] was “Unstable” in each case.

For the compound `O=C(O)CNC(=O)c1cc(CO)c([125I])c(CO)c1`, the Drug uptake result in series [4], in series [5] and in series [6] was “Active” throughout. In series [1], the remaining at 1 h was 95.8%. The Stability result in series [2] and in series [3] was “Stable” throughout.

In the case of `CN(C)C(=O)c1cc(C(=O)NCC(=O)O)cc(C(=O)N(C)C)c1[211At]`, the Drug uptake result in series [5] and in series [6] was “Active” in each case. Besides, the remaining at 1 h in series [1] amounted to 92%; in series [7] it was 86.4%. For the same compound, the Stability entry in series [2] and in series [3] was “Stable” in each case.

As to `O=C(O)CNC(=O)c1ccc([125I])cc1`, the Drug uptake result in series [4] is given as “Active”. Besides, the remaining at 1 h in series [1] was 98.4%. Besides, the Stability entry in series [2] and in series [3] was “Stable” each time.

Turning to `O=C(O)CNC(=O)c1ccccc1` [HIPPURIC ACID], the Kb on Albumin amounted to 1000 M⁻¹.

As to `CN(C)C(=O)c1cc(C(=O)NCC(=O)O)ccc1[125I]`, the Drug uptake result in series [4], in series [5] and in series [6] was “Active” throughout. Also, the remaining at 1 h in series [1] stood at 96.9%.

Regarding `O=C(O)CNC(=O)c1ccc([211At])cc1`, the remaining at 1 h in series [1] was found to be 81.4%. Besides, the Stability result in series [2] and in series [3] was “Unstable” in each case.

With `CN(C)C(=O)c1cc(C(=O)NCC(=O)O)cc(C(=O)N(C)C)c1[125I]`, the Drug uptake entry in series [4], in series [5] and in series [6] was “Active” in each case. The remaining at 1 h in series [1] was determined as 92.7%; in series [7], 75.7%. The Stability result in series [2] and in series [3] was “Stable” in each case.
